“Also recorded” adds a separate entry of the source.
Experiments:
[1] = tested on: Type II refractory celiac disease; experiment: Trend of pertinent laboratory values in a Type II RCD patient across sequential treatments; assay type: in vivo, human; design: CRP: unit not given beside the values; settings: for CRP / DGP IgA / TTG IgA: same patient, Budesonide 3 m, Infliximab 1 y, Cladribine 1.5 y, Tofacitinib 2 y
Excerpt: A person with a past medical history significant for Hashimoto's thyroiditis and positive celiac serology was initially seen for protein-losing enteropathy. Although they had previously been on a gluten-free diet (GFD) for 1 year after first being diagnosed with CD, they re-introduced gluten 3 years before pregnancy without symptoms. They stayed on gluten until one-month postpartum when they developed epigastric pain, nausea, diarrhea with 2-3 loose to watery stools daily, along with significant bilateral lower extremity edema.
At the time of initial hospital admission, they were five months postpartum with the above symptomatology. […] They were discharged to outpatient setting on a GFD and referred to a CD clinic for management.
(§1) During the initial outpatient visit in the CD clinic they were hypotensive with anasarca, diagnosed with celiac crisis, and urgently sent for readmission. They were treated with 72 hours of intravenous solumedrol 20 mg every 12 hours and then transitioned to open-capsule protocol budesonide 3 mg three times a day.
(§2) They were therefore switched to experimental infliximab after a total of 5 months on budesonide.
(§3) The patient was now about 18 months out from diagnosis of Type II RCD, which is associated with about 50% risk of lymphoma in 5 years, so it was imperative to find an effective regimen. […] Discussion of associated adverse events, including thromboembolic ones, was conducted, and pre-treatment labs including lipid profile were done. […] This was the first-time the patient achieved such results in the 2 years since presenting with celiac crisis. […] Their tofacitinib dose will be reduced to 5 mg twice daily to reduce associated adverse events.

[2] = tested on: Type II refractory celiac disease; experiment: Small bowel biopsy histology (modified Marsh classification) and immunophenotype in the Type II RCD patient; assay type: in vivo, human; settings: for Marsh lesions on biopsy: tofacitinib 10 mg twice daily, four months; for Pathology (Marsh lesion): same patient, Budesonide 3 m, Infliximab 1 y, Cladribine 1.5 y, Tofacitinib 2 y
Excerpt: CD can be characterized using the modified Marsh classification scheme. A subject having a Marsh 0 score would be characterized as either healthy or if previously diagnosed with CD, as “CD in remission”. A Marsh 1 score is non-specific, rarely seen in CD, unless already on a GFD during endoscopy, and may be observed in subjects having dermatitis herpetiformis (DH) or in family members of CD patients, but also with other conditions as infections and adverse response to medications. A Marsh 2 score is rare and is sometimes observed in DH and again in CD patients already on a GFD. Marsh 3 score is characteristic of the spectrum of changes observed in symptomatic CD patients.
as §1, §2, §3

[3] = tested on: Type II refractory celiac disease; experiment: Endoscopic and clinical response of the Type II RCD patient; assay type: in vivo, human; settings: for Endoscopic finding (ulcerative jejunitis / duodenopathy): budesonide 3 months, infliximab 9 months, tofacitinib 10 mg twice daily, four months
Method: as §1, §2, §3
However, malabsorption, malignancy, morbidity and mortality are known complications in Type II RCD (Cellier et al. (2000); Ilus et al. (2014); Weiss (2021) Diagnosis and Management of Gluten-Associated Disorders: A clinical casebook. Springer). Currently, the best clinical practice in managing RCD is to advocate for experimental medication treatment in adjunct to a strict gluten-free diet (GFD). Yet the same guidelines acknowledge the absence of treatments with proven efficacy in Type II RCD (Rubio-Tapia et al. (2013) Am. J. Gastroenterol., 108(5):656-677; Al-Toma et al. (2019) United European Gastroenterol. J.: 7(5):583-613). The European guidelines discuss the potential use of AMG714 or JAK inhibitor after corticosteroids, immunomodulators, and chemotherapy in the most refractory of CD cases. […] Additional studies are needed, but the therapy disclosed herein may be utilized in uncomplicated CD or non-responsive CD (NRCD) in combination with a GFD, or even as a substitute to one.

IL-15 = IL-15 (Homo sapiens, UniProt P40933); settings: cited from earlier work
[4] = budesonide 3 months, infliximab 9 months

IL-15, sequence (P40933 49-162): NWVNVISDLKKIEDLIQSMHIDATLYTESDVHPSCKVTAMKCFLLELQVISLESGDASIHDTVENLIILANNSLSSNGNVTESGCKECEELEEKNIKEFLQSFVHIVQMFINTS

| Compound | CRP [1] | DGP IgA [1] | TTG IgA [1] | CD serologies ([1]; four months after start of tofacitinib 10 mg twice daily) | Marsh lesions on biopsy [2, 4] | Duodenal bulb biopsy histology (H&E) ([2]; during tofacitinib therapy, FIG. 2D) | Pathology (Marsh lesion) [2] | Endoscopic finding (ulcerative jejunitis / duodenopathy) [3] | Symptoms ([3]; during tofacitinib therapy) | Results of AMG714 (IL-15) | Resolution of RCD ([3]; one dose of cladribine 10 mg IV) | T-cell aberrancy / CD8 expression in intraepithelial T-lymphocytes [2, 4] |
| --- | --- | --- | --- | --- | --- | --- | --- | --- | --- | --- | --- | --- |
| CCCC1O[C@@H]2C[C@H]3[C@@H]4CCC5=CC(=O)C=C[C@]5(C)[C@H]4[C@@H](O)C[C@]3(C)[C@]2(C(=O)CO)O1 (stereo partly shown) [Budesonide, budesonide] | <0.3 | 186.9 | 152.3 | – | – | – | – | – | – | – | – | – |
| C[C@@H]1CCN(C(=O)CC#N)C[C@@H]1N(C)c1ncnc2[nH]ccc12 [Tofacitinib, tofacitinib] | <0.3 | 70 (H) | 5 | normalization of their CD serologies | Marsh 1-2 | normal villous architecture with focal areas of crypt hyperplasia and an increase in intraepithelial lymphocytes | Marsh 1-2 | reversed severe therapy-refractory duodenopathy; also recorded: improvement in their duodenopathy | ameliorated symptoms of CD; also recorded: feeling well with minimum symptoms | – | – | – |
| AMG714: anti-IL-15 mAb | – | – | – | – | – | – | – | – | – | positive yet statistically insignificant results | – | – |
| Nc1nc(Cl)nc2c1ncn2[C@H]1C[C@H](O)[C@@H](CO)O1 [Cladribine, cladribine] | <0.3 | 57.7 (H) | 44.3 (H) | – | – | – | Marsh 3A | – | – | – | without resolution of their RCD | – |
| infliximab | <0.3 | 53.9 (H) | 33.1 (H) | – | Marsh 3A | – | Marsh 3A | resolution of their ulcerative jejunitis | – | – | – | unchanged T-cell aberrancy |

Reference: patent publication US20240307396A1, “COMPOSITIONS AND METHODS FOR TREATING CELIAC DISEASE” (THE REGENTS OF THE UNIVERSITY OF CALIFORNIA, priority 2021, published 2024)
